Test results taken from ChEMBL document CHEMBL3600363, “Discovery of potent, selective small molecule inhibitors of α-subtype of type III phosphatidylinositol-4-kinase (PI4KIIIα)” (Bioorg Med Chem Lett, 2015).
pIC50: −log10 of the molar value.

How the values were obtained:
[1] = biological target: Phosphatidylinositol 4-kinase alpha (Homo sapiens, UniProt P42356); assay: Inhibition of N-terminal FLAG-tagged human full length recombinant PI4K3alpha using D-myo-phosphatidylinositol substrate and ATP incubated for 45 mins by ADP-Glo kinase Assay
[2] = biological target: Phosphatidylinositol 4-kinase beta (Homo sapiens, UniProt Q9UBF8); assay: Inhibition of N-terminal GST-tagged human full length recombinant PI4K3beta expressed in Sf9 cells using D-myo-phosphatidylinositol substrate and ATP incubated for 45 mins by ADP-Glo kinase Assay
[3] = biological target: Phosphatidylinositol 4,5-bisphosphate 3-kinase catalytic subunit alpha isoform (Homo sapiens, UniProt P42336); assay: Inhibition of PI3Kalpha (unknown origin) pre-incubated for 20 mins before phosphatidylinositol 4, 5-bisphosphate substrate addition by kinase-glo plus luminescence assay
[4] = biological target: Phosphatidylinositol 4,5-bisphosphate 3-kinase catalytic subunit beta isoform (Homo sapiens, UniProt P42338); assay: Inhibition of PI3Kbeta (unknown origin) pre-incubated for 20 mins before phosphatidylinositol 4, 5-bisphosphate substrate addition by kinase-glo plus luminescence assay
[5] = biological target: Phosphatidylinositol 4,5-bisphosphate 3-kinase catalytic subunit gamma isoform (Homo sapiens, UniProt P48736); assay: Inhibition of PI3Kgamma (unknown origin) pre-incubated for 20 mins before phosphatidylinositol 4, 5-bisphosphate substrate addition by kinase-glo plus luminescence assay
[6] = biological target: T1, Phosphatidylinositol 4,5-bisphosphate 3-kinase catalytic subunit delta isoform (Homo sapiens, UniProt O00329); assay: Inhibition of PI3Kdelta (unknown origin) pre-incubated for 20 mins before phosphatidylinositol 4, 5-bisphosphate substrate addition by kinase-glo plus luminescence assay
T1 sequence (O00329 whole entry): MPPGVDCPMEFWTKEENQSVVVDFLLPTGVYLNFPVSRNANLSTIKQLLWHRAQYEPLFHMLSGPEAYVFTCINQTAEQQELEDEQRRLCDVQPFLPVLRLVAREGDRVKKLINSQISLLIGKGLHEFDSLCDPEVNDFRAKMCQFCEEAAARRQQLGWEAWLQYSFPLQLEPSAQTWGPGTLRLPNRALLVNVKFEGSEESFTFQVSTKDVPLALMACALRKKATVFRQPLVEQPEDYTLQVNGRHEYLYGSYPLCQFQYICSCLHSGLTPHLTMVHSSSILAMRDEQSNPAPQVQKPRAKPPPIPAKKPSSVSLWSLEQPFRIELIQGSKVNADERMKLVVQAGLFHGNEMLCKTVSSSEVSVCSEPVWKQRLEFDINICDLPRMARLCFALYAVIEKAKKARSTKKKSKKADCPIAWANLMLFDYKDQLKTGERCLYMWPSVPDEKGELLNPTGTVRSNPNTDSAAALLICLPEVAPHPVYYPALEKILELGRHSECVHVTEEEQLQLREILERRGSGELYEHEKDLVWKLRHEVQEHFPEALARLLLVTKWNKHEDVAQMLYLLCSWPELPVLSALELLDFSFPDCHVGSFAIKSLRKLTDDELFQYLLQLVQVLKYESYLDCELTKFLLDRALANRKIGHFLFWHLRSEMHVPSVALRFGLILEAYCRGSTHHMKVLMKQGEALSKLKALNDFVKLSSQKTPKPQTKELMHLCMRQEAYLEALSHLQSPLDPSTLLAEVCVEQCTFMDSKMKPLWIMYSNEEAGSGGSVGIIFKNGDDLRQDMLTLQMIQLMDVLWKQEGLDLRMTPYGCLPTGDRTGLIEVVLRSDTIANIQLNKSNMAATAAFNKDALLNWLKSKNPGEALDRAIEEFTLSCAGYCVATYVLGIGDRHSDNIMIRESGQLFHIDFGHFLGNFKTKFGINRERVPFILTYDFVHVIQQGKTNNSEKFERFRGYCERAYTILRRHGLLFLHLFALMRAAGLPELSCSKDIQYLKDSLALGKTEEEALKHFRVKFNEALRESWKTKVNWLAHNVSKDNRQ

[7] = biological target: Phosphatidylinositol 4-phosphate 5-kinase type-1 gamma (Homo sapiens, UniProt O60331); assay: Inhibition of PIP5K1C (unknown origin) using D-myo-phosphatidylinositol 4-phosphate substrate and ATP by ADP-Glo kinase Assay
Chain of Phosphatidylinositol 4-phosphate 5-kinase type-1 gamma (O60331 whole entry): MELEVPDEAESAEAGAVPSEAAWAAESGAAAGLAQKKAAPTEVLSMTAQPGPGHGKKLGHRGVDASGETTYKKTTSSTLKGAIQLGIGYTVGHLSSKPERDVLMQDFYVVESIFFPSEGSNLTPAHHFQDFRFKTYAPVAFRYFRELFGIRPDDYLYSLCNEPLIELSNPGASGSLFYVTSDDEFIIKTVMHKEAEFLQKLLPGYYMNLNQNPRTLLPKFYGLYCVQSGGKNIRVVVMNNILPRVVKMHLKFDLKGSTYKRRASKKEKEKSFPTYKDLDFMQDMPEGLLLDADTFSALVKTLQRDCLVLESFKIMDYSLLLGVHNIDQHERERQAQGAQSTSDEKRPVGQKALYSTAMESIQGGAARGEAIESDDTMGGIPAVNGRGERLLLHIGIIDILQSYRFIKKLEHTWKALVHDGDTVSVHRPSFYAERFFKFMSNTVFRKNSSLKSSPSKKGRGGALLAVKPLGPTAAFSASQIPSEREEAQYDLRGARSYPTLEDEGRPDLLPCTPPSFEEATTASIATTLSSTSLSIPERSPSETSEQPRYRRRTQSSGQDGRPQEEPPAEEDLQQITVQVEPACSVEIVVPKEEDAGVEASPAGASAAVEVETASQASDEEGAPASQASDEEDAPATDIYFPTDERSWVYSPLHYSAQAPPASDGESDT

Chain of Phosphatidylinositol 4,5-bisphosphate 3-kinase catalytic subunit beta isoform (P42338 whole entry, canonical isoform): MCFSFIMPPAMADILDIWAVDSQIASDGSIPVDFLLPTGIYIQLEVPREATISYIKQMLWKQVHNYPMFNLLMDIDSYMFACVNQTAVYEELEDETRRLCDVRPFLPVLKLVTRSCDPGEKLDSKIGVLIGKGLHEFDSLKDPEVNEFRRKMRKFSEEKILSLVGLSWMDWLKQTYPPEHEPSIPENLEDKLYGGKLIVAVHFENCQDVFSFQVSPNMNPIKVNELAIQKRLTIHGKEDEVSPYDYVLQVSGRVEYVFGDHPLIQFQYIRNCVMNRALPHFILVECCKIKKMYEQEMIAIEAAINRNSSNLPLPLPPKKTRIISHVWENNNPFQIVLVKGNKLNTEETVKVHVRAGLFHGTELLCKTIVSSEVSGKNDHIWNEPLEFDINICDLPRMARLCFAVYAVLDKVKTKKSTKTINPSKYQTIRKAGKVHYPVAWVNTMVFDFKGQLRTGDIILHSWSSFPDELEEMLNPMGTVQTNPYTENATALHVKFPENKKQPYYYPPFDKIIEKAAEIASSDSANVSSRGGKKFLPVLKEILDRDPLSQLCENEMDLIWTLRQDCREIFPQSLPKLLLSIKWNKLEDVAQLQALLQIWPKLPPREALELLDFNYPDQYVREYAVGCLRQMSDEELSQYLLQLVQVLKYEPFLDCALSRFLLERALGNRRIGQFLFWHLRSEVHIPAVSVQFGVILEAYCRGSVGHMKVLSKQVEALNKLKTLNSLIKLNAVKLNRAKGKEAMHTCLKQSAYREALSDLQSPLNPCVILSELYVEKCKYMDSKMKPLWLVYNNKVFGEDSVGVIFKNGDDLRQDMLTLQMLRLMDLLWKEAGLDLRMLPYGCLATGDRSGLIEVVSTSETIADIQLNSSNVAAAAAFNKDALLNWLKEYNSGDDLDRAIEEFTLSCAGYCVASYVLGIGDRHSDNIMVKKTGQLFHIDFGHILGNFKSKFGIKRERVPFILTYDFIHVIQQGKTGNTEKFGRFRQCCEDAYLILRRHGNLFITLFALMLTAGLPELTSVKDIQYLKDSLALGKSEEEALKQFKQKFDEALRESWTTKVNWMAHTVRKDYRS
Chain of Phosphatidylinositol 4-kinase beta (Q9UBF8 whole entry, canonical isoform): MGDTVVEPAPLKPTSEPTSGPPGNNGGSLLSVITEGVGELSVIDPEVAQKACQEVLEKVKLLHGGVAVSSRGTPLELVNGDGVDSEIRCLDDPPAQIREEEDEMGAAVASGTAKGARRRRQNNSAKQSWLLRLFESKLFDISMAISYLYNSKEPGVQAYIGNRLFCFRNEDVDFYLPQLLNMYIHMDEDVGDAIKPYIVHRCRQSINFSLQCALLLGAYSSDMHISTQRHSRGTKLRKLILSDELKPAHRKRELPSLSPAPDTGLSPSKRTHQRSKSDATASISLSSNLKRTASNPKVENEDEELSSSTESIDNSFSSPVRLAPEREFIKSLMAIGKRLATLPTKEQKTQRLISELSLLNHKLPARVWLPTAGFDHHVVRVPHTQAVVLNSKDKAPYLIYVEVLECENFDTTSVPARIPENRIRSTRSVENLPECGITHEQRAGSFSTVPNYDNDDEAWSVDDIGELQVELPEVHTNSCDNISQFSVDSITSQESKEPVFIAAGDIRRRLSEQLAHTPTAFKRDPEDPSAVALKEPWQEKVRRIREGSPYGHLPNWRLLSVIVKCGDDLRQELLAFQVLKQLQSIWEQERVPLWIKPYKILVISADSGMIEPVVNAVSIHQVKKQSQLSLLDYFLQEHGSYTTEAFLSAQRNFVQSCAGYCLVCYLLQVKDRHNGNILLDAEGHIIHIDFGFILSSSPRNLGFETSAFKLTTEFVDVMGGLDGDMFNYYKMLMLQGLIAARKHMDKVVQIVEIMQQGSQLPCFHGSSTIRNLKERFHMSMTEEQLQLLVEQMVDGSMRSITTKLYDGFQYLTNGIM
Chain of Phosphatidylinositol 4,5-bisphosphate 3-kinase catalytic subunit alpha isoform (P42336 whole entry, canonical isoform): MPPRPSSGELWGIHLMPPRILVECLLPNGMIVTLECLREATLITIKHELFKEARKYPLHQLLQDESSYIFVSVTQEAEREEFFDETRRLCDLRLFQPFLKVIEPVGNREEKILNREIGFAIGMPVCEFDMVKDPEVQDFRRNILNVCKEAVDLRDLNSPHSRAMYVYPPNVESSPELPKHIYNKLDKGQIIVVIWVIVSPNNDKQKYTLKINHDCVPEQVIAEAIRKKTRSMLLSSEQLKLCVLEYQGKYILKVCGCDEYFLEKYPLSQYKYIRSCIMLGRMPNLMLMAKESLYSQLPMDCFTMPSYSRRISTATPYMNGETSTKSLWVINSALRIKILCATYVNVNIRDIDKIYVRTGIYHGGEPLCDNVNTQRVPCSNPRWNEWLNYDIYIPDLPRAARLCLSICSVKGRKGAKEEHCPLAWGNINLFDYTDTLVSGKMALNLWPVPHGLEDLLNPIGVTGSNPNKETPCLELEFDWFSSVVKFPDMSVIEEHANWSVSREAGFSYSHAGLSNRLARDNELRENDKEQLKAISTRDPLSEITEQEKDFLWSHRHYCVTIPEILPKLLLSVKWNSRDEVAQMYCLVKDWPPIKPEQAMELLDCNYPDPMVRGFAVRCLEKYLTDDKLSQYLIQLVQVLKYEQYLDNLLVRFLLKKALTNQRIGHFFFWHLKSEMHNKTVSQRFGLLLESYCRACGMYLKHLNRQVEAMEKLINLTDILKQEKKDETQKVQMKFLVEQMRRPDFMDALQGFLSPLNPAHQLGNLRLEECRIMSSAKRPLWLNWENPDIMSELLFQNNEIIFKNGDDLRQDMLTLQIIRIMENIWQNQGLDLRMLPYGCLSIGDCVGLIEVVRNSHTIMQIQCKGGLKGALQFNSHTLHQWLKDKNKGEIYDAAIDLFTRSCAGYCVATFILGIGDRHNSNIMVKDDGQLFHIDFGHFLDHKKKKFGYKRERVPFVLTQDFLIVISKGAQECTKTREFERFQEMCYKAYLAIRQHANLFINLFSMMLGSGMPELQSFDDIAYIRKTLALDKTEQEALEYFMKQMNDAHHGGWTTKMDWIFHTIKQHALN
Chain of Phosphatidylinositol 4,5-bisphosphate 3-kinase catalytic subunit gamma isoform (P48736 whole entry, canonical isoform): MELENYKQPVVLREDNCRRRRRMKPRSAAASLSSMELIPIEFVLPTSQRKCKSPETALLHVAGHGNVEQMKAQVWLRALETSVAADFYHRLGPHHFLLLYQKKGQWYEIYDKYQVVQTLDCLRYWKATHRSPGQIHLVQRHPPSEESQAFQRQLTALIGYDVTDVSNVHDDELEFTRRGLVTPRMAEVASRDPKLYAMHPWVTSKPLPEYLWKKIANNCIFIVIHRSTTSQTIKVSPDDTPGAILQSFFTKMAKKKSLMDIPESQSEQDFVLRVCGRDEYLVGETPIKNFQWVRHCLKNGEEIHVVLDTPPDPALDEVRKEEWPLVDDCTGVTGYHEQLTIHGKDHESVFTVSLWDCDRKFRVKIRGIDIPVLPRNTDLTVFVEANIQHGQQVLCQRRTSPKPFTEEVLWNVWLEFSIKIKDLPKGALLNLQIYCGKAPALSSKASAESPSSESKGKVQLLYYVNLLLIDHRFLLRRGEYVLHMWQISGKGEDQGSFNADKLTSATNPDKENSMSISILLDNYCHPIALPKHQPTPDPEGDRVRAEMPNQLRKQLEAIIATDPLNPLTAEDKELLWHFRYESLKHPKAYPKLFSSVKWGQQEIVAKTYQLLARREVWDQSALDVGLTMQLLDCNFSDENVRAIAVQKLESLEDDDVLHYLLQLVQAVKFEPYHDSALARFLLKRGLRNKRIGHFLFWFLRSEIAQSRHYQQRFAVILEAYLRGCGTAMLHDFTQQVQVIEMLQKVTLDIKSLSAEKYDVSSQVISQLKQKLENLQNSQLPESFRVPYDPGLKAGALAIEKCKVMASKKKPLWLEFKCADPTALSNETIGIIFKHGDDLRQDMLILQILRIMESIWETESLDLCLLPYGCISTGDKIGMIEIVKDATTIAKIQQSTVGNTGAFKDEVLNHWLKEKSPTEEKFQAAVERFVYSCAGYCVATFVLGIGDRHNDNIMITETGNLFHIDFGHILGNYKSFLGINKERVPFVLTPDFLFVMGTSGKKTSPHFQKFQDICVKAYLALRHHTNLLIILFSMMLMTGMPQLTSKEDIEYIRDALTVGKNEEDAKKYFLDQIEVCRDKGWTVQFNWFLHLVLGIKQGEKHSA

**Q.** How did the pIC50 [1] turn out when `COCCOc1ccc(-c2ccc3nc(N)sc3c2)cn1` was run?
**A.** The pIC50 was 6.50.

**Q.** What about the pIC50 [2] of the same molecule?
**A.** The pIC50 was 6.00.

**Q.** What about the pIC50 [3] of the same molecule?
**A.** Its pIC50 is 5.60.

**Q.** And the pIC50 [4]?
**A.** The pIC50 was 5.10.

**Q.** What about the pIC50 [5] of the same molecule?
**A.** The pIC50 was 5.50.

**Q.** And the pIC50 [6]?
**A.** The pIC50 was 5.20.

**Q.** What about the pIC50 [7] of the same molecule?
**A.** Its pIC50 is less than 4.00.

**Q.** With `Nc1nc2ccc(-c3ccncc3)cc2s1` as the molecule, how does the pIC50 [1] read?
**A.** The pIC50 was 5.60.

**Q.** And the pIC50 [2]?
**A.** Its pIC50 is 6.00.

**Q.** How did the pIC50 [1] turn out when `CCN(C)c1ccc(-c2ccc3nc(N)sc3c2)cn1` was run?
**A.** The pIC50 was 6.20.

**Q.** What about the pIC50 [2] of the same molecule?
**A.** The pIC50 was 5.80.

**Q.** What about the pIC50 [3] of the same molecule?
**A.** The pIC50 was 5.20.

**Q.** And the pIC50 [4]?
**A.** The pIC50 was 4.40.

**Q.** What about the pIC50 [5] of the same molecule?
**A.** The pIC50 was 5.40.

**Q.** And the pIC50 [6]?
**A.** The pIC50 was 4.90.

**Q.** What about the pIC50 [7] of the same molecule?
**A.** The pIC50 was less than 4.00.

**Q.** What does the source list for `COCCOn1ccc(-c2ccc3nc(N)sc3c2)cc1=O`?
**A.** pIC50 [1]: 6.20; pIC50 [2]: 5.00; pIC50 [3]: 4.60; pIC50 [4]: < 3.70; pIC50 [5]: 5.00; pIC50 [6]: < 3.70; pIC50 [7]: < 4.00

**Q.** How did the pIC50 [1] turn out when `CCn1ccc(-c2ccc3nc(N)sc3c2)cc1=O` was run?
**A.** The pIC50 was 6.50.

**Q.** What about the pIC50 [2] of the same molecule?
**A.** Its pIC50 is 6.50.

**Q.** What about the pIC50 [3] of the same molecule?
**A.** Its pIC50 is 5.20.

**Q.** What about the pIC50 [4] of the same molecule?
**A.** Its pIC50 is 4.30.

**Q.** What about the pIC50 [5] of the same molecule?
**A.** Its pIC50 is 5.50.

**Q.** And the pIC50 [6]?
**A.** Its pIC50 is 5.00.

**Q.** And the pIC50 [7]?
**A.** The pIC50 was less than 4.00.

**Q.** Which results are given for `CCNc1ccc(-c2ccc3nc(N)sc3c2)cn1`?
**A.** pIC50 [1]: 6.20; pIC50 [2]: 6.00; pIC50 [3]: 5.70; pIC50 [4]: 4.90; pIC50 [5]: 5.40; pIC50 [6]: 5.20; pIC50 [7]: 4.50

**Q.** What does the source list for `CCCn1cc(-c2ccc3nc(N)sc3c2)cn1`?
**A.** pIC50 [1]: 5.80; pIC50 [2]: 5.70; pIC50 [3]: 4.90; pIC50 [4]: 4.90; pIC50 [5]: 5.80; pIC50 [6]: 4.90; pIC50 [7]: 4.60

**Q.** What does the source list for `COCc1ccc(-c2ccc3nc(N)sc3c2)cn1`?
**A.** pIC50 [1]: 6.00; pIC50 [2]: 6.50; pIC50 [3]: 5.60; pIC50 [4]: 4.80; pIC50 [6]: 5.20; pIC50 [7]: < 4.00

**Q.** How did the pIC50 [1] turn out when `Nc1nc2ccc(-c3cnn(CC4CC4)c3)cc2s1` was run?
**A.** Its pIC50 is 6.20.

**Q.** And the pIC50 [2]?
**A.** The pIC50 was 5.70.

**Q.** What about the pIC50 [3] of the same molecule?
**A.** Its pIC50 is 4.90.

**Q.** And the pIC50 [4]?
**A.** The pIC50 was 4.80.

**Q.** What about the pIC50 [5] of the same molecule?
**A.** Its pIC50 is 5.90.

**Q.** What about the pIC50 [6] of the same molecule?
**A.** The pIC50 was 4.70.

**Q.** How did the pIC50 [1] turn out when `CNCc1ccc(-c2ccc3nc(N)sc3c2)cn1` was run?
**A.** The pIC50 was 5.60.

**Q.** What about the pIC50 [2] of the same molecule?
**A.** Its pIC50 is 5.50.

**Q.** And the pIC50 [3]?
**A.** Its pIC50 is 4.20.

**Q.** And the pIC50 [4]?
**A.** The pIC50 was 4.10.

**Q.** What about the pIC50 [5] of the same molecule?
**A.** The pIC50 was 4.30.

**Q.** And the pIC50 [6]?
**A.** The pIC50 was 4.20.

**Q.** What about the pIC50 [7] of the same molecule?
**A.** The pIC50 was less than 4.00.

**Q.** `CC(C)Oc1cncc(-c2ccc3nc(N)sc3c2)c1` was tested. Which pIC50 [1] did it give?
**A.** The pIC50 was 6.00.

**Q.** And the pIC50 [2]?
**A.** Its pIC50 is 6.00.

**Q.** What about the pIC50 [3] of the same molecule?
**A.** The pIC50 was 6.30.

**Q.** And the pIC50 [4]?
**A.** Its pIC50 is 5.90.

**Q.** And the pIC50 [5]?
**A.** Its pIC50 is 6.60.

**Q.** What about the pIC50 [6] of the same molecule?
**A.** The pIC50 was 5.90.

**Q.** What about the pIC50 [7] of the same molecule?
**A.** Its pIC50 is 4.50.

**Q.** What does the source list for `Cn1ccc(-c2ccc3nc(N)sc3c2)n1`?
**A.** pIC50 [1]: 5.60; pIC50 [2]: 5.90; pIC50 [3]: 5.20; pIC50 [4]: 4.80; pIC50 [5]: 5.60; pIC50 [6]: 4.90; pIC50 [7]: 4.20

**Q.** With `Nc1nc2ccc(-c3cnn(Cc4ccccc4)c3)cc2s1` as the molecule, how does the pIC50 [1] read?
**A.** The pIC50 was 6.80.

**Q.** What about the pIC50 [2] of the same molecule?
**A.** The pIC50 was 6.10.

**Q.** What about the pIC50 [3] of the same molecule?
**A.** The pIC50 was 5.10.

**Q.** And the pIC50 [4]?
**A.** The pIC50 was 4.60.

**Q.** And the pIC50 [5]?
**A.** Its pIC50 is 5.70.

**Q.** And the pIC50 [6]?
**A.** Its pIC50 is 4.70.

**Q.** What about the pIC50 [7] of the same molecule?
**A.** Its pIC50 is less than 4.00.

**Q.** `CCn1cc(-c2ccc3nc(N)sc3c2)cn1` was tested. Which pIC50 [1] did it give?
**A.** Its pIC50 is 5.50.

**Q.** And the pIC50 [2]?
**A.** The pIC50 was 5.80.

**Q.** What about the pIC50 [3] of the same molecule?
**A.** Its pIC50 is 4.90.

**Q.** What about the pIC50 [4] of the same molecule?
**A.** Its pIC50 is 4.50.

**Q.** And the pIC50 [5]?
**A.** The pIC50 was 5.50.

**Q.** What about the pIC50 [6] of the same molecule?
**A.** Its pIC50 is 4.70.

**Q.** And the pIC50 [7]?
**A.** Its pIC50 is less than 4.00.

**Q.** How did the pIC50 [1] turn out when `Nc1nc2ccc(-c3ccccc3)cc2s1` was run?
**A.** Its pIC50 is 5.60.

**Q.** What about the pIC50 [2] of the same molecule?
**A.** The pIC50 was 6.30.

**Q.** What about the pIC50 [3] of the same molecule?
**A.** Its pIC50 is 4.90.

**Q.** And the pIC50 [7]?
**A.** Its pIC50 is less than 4.00.

**Q.** Which results are given for `CS(=O)(=O)c1ccc(-c2ccc3nc(N)sc3c2)cn1`?
**A.** pIC50 [1]: 4.60; pIC50 [2]: 5.10; pIC50 [3]: 3.80; pIC50 [4]: 4.40; pIC50 [5]: 5.00; pIC50 [6]: 4.90; pIC50 [7]: 5.00

**Q.** How did the pIC50 [1] turn out when `CC(C)Oc1ccc(-c2ccc3nc(N)sc3c2)cn1` was run?
**A.** Its pIC50 is 7.10.

**Q.** And the pIC50 [2]?
**A.** Its pIC50 is 5.90.

**Q.** And the pIC50 [3]?
**A.** Its pIC50 is 5.30.

**Q.** And the pIC50 [4]?
**A.** Its pIC50 is 4.50.

**Q.** What about the pIC50 [5] of the same molecule?
**A.** The pIC50 was 4.90.

**Q.** What about the pIC50 [6] of the same molecule?
**A.** The pIC50 was 4.90.

**Q.** What about the pIC50 [7] of the same molecule?
**A.** The pIC50 was less than 4.00.

**Q.** Which results are given for `Cn1nccc1-c1ccc2nc(N)sc2c1`?
**A.** pIC50 [1]: 4.90; pIC50 [2]: 6.00; pIC50 [3]: 4.90; pIC50 [4]: 4.50; pIC50 [5]: 5.60; pIC50 [6]: 4.60; pIC50 [7]: < 4.00

**Q.** What does the source list for `Nc1nc2ccc(-c3ccc(CO)nc3)cc2s1`?
**A.** pIC50 [1]: 5.80; pIC50 [2]: 6.10; pIC50 [3]: 5.50; pIC50 [7]: < 4.00
